System: Patients with moderate to severe stable COPD
Experiment: 4-week randomized once-daily inhaled treatment in COPD patients, spirometry (FEV1) and tolerability
Format: in vivo, human
Method: Methods: Patients with moderate to severe stable COPD were randomized to receive double-blind, once-daily treatment with aclidinium (25, 50, 100, 200, or 400 μg), placebo, or open-label tiotropium 18 μg for 4 weeks. Spirometric measurements were performed at 22-24 h after the first dose and then at weekly intervals, and from 0.5-6 h post-administration on Day 1 and at Week 4 (Day 29).
Results: The ITT population included 460 patients.
Mean change from baseline in trough FEV1 on Day 29

[1] = 25-400 μg once daily for 4 weeks, COPD patients

Structure (SMILES): O=C(O[C@H]1C[N+]2(CCCOc3ccccc3)CCC1CC2)C(O)(c1cccs1)c1cccs1.[Br-] [Aclidinium, 3(R)-(2-hydroxy-2,2-dithien-2-ylacetoxy)-1-(3-phenoxypropyl)-1-azoniabicyclo[2.2.2]octane bromide]
- Effect on ECG, laboratory parameters or adverse events [1]: no dose-dependent effect
- Tolerability [1]: well tolerated
- Effect on trough FEV1 on Day 29 (dose dependence) (25-400 μg once daily, ITT population 460 patients): dose-dependently increased
- Bronchodilatory effect compared with open-label tiotropium 18 μg (aclidinium 200 and 400 μg): comparable bronchodilatory effects
- Bronchodilatory effect during the first 6 h post-dose on Day 29 versus Day 1 (all doses): comparable to that on Day 1
- Duration of bronchodilation (once-daily dosing, COPD patients): sustained bronchodilation over 24 h

Structure (SMILES): C[N+]1(C)[C@@H]2C[C@@H](OC(=O)C(O)(c3cccs3)c3cccs3)C[C@H]1[C@@H]1O[C@@H]12 [Tiotropium, reference compound]
- Mean change from baseline in trough FEV1 on Day 29 (Mean Δ) (tiotropium 18 μg once daily, open-label, 4 weeks, COPD patients, *p < 0.05 vs placebo): 161* ml
